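Assay format: 96-well plates, 48-hour exposure. TGI denotes the concentration required for complete inhibition of growth.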
Experiments:
Test in all cases: growth of human tumour cells (NCI), 48 h
[1] = test system: 786-0 renal
[2] = test system: A549 NSCLC
[3] = test system: ACHN renal
[4] = test system: CAKI-1 renal
[5] = test system: CCRF-CEM leukemia
[6] = test system: COLO 205 colon
[7] = test system: DLD-1 colon
[8] = test system: EKVX NSCLC
[9] = test system: HCC-2998 colon
[10] = test system: HCT-116 colon
[11] = test system: HCT-15 colon
[12] = test system: HL-60(TB) leukemia
[13] = test system: HT29 colon
[14] = test system: IGROV1 ovarian
[15] = test system: K-562 leukemia
[16] = test system: KM12 colon
[17] = test system: KM20L2 colon
[18] = test system: LOX IMVI melanoma
[19] = test system: LXFL 529 NSCLC
[20] = test system: M14 melanoma
[21] = test system: M19-MEL melanoma
[22] = test system: MALME-3M melanoma
[23] = test system: MOLT-4 leukemia
[24] = test system: NCI-H226 lung
[25] = test system: NCI-H23 lung
[26] = test system: NCI-H460 lung
[27] = test system: NCI-H522 lung
[28] = test system: OVCAR-3 ovarian
[29] = test system: OVCAR-4 ovarian
[30] = test system: OVCAR-5 ovarian
[31] = test system: OVCAR-8 ovarian
[32] = test system: RPMI-8226 leukemia
[33] = test system: RXF 393 renal
[34] = test system: RXF-631 renal
[35] = test system: SF-268 CNS
[36] = test system: SF-295 CNS
[37] = test system: SF-539 CNS
[38] = test system: SK-MEL-2 melanoma
[39] = test system: SK-MEL-28 melanoma
[40] = test system: SK-MEL-5 melanoma
[41] = test system: SN12C renal
[42] = test system: SNB-19 CNS
[43] = test system: SNB-75 CNS
[44] = test system: SNB-78 CNS
[45] = test system: SR leukemia
[46] = test system: SW-620 colon
[47] = test system: U251 CNS
[48] = test system: UACC-257 melanoma
[49] = test system: UACC-62 melanoma
[50] = test system: UO-31 renal
[51] = test system: XF 498 CNS

C/C(O)=C/c1nc2ccccc2[nH]1
TGI [1]: > 100 µM | TGI [2]: > 100 µM | TGI [3]: > 100 µM | TGI [4]: > 100 µM | TGI [5]: > 100 µM | TGI [6]: > 100 µM | TGI [7]: > 100 µM | TGI [8]: > 100 µM | TGI [9]: > 100 µM | TGI [10]: > 100 µM | TGI [11]: > 100 µM | TGI [12]: > 100 µM | TGI [13]: > 100 µM | TGI [14]: > 100 µM | TGI [15]: > 100 µM | TGI [16]: > 100 µM | TGI [17]: > 100 µM | TGI [18]: > 100 µM | TGI [19]: > 100 µM | TGI [20]: > 100 µM | TGI [21]: > 100 µM | TGI [22]: > 100 µM | TGI [23]: > 100 µM | TGI [24]: > 100 µM | TGI [25]: > 100 µM | TGI [26]: > 100 µM | TGI [27]: > 100 µM | TGI [28]: > 100 µM | TGI [29]: > 100 µM | TGI [30]: > 100 µM | TGI [31]: > 100 µM | TGI [32]: > 100 µM | TGI [33]: > 100 µM | TGI [34]: > 100 µM | TGI [35]: > 100 µM | TGI [36]: > 100 µM | TGI [37]: > 100 µM | TGI [38]: > 100 µM | TGI [39]: > 100 µM | TGI [40]: > 100 µM | TGI [41]: > 100 µM | TGI [42]: > 100 µM | TGI [43]: 78.8 µM | TGI [44]: > 100 µM | TGI [45]: > 100 µM | TGI [46]: > 100 µM | TGI [47]: > 100 µM | TGI [48]: > 100 µM | TGI [49]: > 100 µM | TGI [50]: > 100 µM | TGI [51]: > 100 µM
